Assay results published in patent US9073892B2, “Indazolyl triazol derivatives” (Merck Serono S.A., priority 2010, dated 2015).

System: T1, IRAK1/4 human
T1 construct: fused on or other part: His tag and TEV cleavage site at the N-terminus
Test: IRAK1/4 phosphorylation IC50 (enzymatic assay, table 2)
Assay type: biochemical
Settings: human IRAK1/4 phosphorylation
Procedure, shortened: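 Human IRAK-1 or IRAK-4, each carrying a His-TEV tag, was incubated with ATP and compounds in DMSO ranging from 20 µM to 1 nM in 384-well plates, and IRAK-4 reactions also contained STK1-biotin peptide. Reactions ran in 50 mM Hepes pH7.0 with MgCl2, DTT, EGTA and BSA for 2 or 3 hours, with 2% DMSO controls. Inhibition is given as IC50.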

IC50 [nM]	SMILES
100 to 1000	O=C(c1ccc(-n2cc(-c3n[nH]c4cc(Cl)ccc34)nn2)cc1)N1CCOCC1 [Example 185]
100 to 1000	O=C(c1ccc(-n2cc(-c3n[nH]c4cc(CCCO)ccc34)nn2)cc1)N1CCOCC1 [Example 147, 3-(3-{1-[4-(morpholin-ylcarbonyl)phenyl]-1H-1,2,3-triazol-4-yl}-1H-indazol-6-yl)propan-1-ol]
100 to 1000	O=C(c1ccc(-n2cc(-c3n[nH]c4ccc(OCCCO)cc34)nn2)cc1)N1CCOCC1 [Example 153, 3-[(3-{1-[4-(morpholin-4-ylcarbonyl)phenyl]-1H-1,2,3-triazol-4-yl}-1H-indazol-5-yl)oxy]propan-1-ol]
100 to 1000	CC(C)Cc1ccc2[nH]nc(-c3cn(-c4ccc(C(=O)N5CCC(N(C)C)CC5)cc4)nn3)c2c1 [Example 139, 1-{4-[4(5-isobutyl-1H-indazol-3-yl)-1H-1,2,3-triazol-1-yl]benzoyl}-N,N-dimethylpiperidin-4-amine]
1000 to 5000	COc1cc2[nH]nc(-c3cn(-c4ccc(C(=O)N5CCOCC5)cc4)nn3)c2cc1Br [Example 202]
100 to 1000	O=C(c1ccc(-n2cc(-c3n[nH]c4ccccc34)nn2)cn1)N1CCOCC1 [Example 155]
1000 to 5000	Cc1cccc2[nH]nc(-c3cn(-c4ccc(C(=O)N5CCOCC5)cc4)nn3)c12 [Example 175]
100 to 1000	O=C(c1ccc(-n2cc(-c3n[nH]c4ccccc34)nn2)cc1)N1CC2(COC2)C1 [Example 170]
1000 to 5000	O=C(c1ccc(-n2cc(-c3n[nH]c4cc(-c5ccccc5)ccc34)nn2)cc1)N1CCOCC1 [Example 203]
100 to 1000	CC1CN(C(=O)c2ccc(-n3cc(-c4n[nH]c5ccccc45)nn3)cc2)CCO1 (stereo not drawn) [Example 160]
100 to 1000	O=C(c1ccc(-n2cc(-c3n[nH]c4ccc(F)cc34)nn2)cc1)N1CCOCC1 [Example 157]
100 to 1000	COCCCc1ccc2c(-c3cn(-c4ccc(C(=O)N5CCOCC5)cc4)nn3)n[nH]c2c1 [Example 220]
100 to 1000	CN(C)C1CCN(C(=O)c2ccc3[nH]nc(-c4cn(-c5ccc(CN6CCOCC6)cc5)nn4)c3c2)CC1 [Example 237]
100 to 1000	COc1cc2[nH]nc(-c3cn(-c4ccc(C(=O)N5CCOCC5)cc4)nn3)c2cc1OC [Example 189]
100 to 1000	CC(CO)Nc1ccc2c(-c3cn(-c4ccc(C(=O)N5CCOCC5)cc4)nn3)n[nH]c2c1 (stereo not drawn) [Example 245]
100 to 1000	O=C(c1ccc(-n2cc(-c3n[nH]c4cc(C5=CCOCC5)ccc34)nn2)cc1)N1CCOCC1 [Example 217]
< 100	O=C(c1ccc(-n2cc(-c3n[nH]c4ccc(O)cc34)nn2)cc1)N1CCOCC1 [Example 192]
100 to 1000	O=C(c1ccc(-n2cc(-c3n[nH]c4cc(-c5ccncc5)ccc34)nn2)cc1)N1CCOCC1 [Example 214]
100 to 1000	O=C(c1ccc(-n2cc(-c3n[nH]c4cc(CCCCO)ccc34)nn2)cc1)N1CCOCC1 [Example 216]
< 100	O=C(c1ccc(-n2cc(-c3n[nH]c4ccc(NC5CCCNC5)cc34)nn2)cc1)N1CCOCC1 (stereo not drawn) [Example 257]
100 to 1000	CC(C)c1ccc2c(-c3cn(-c4ccc(C(=O)N5CCOCC5)cc4)nn3)n[nH]c2c1 [Example 206]
100 to 1000	O=C(c1ccc(-n2cc(-c3n[nH]c4ccc(C(F)(F)F)cc34)nn2)cc1)N1CCOCC1 [Example 156]
100 to 1000	O=C(c1ccc(-n2cc(-c3n[nH]c4ccc(N5CCCC(F)(F)C5)cc34)nn2)cc1)N1CCOCC1 [Example 242]
1000 to 5000	O=C(c1ccc(-n2cc(-c3n[nH]c4cc(-c5ccc(CO)cc5)ccc34)nn2)cc1)N1CCOCC1 [Example 207]
100 to 1000	CN(C)C1CCN(C(=O)c2ccc(-n3cc(-c4n[nH]c5ccc(C6CCOCC6)cc45)nn3)cc2)CC1 [Example 178]
100 to 1000	COc1cnccc1-c1ccc2[nH]nc(-c3cn(-c4ccc(C(=O)N5CCOCC5)cc4)nn3)c2c1 [Example 181]

More lines, now with the values behind:

SMILES	IC50 [nM]
Cn1cc(-c2ccc(-n3cc(-c4n[nH]c5ccccc45)nn3)cc2)cn1 [Example 261]	100 to 1000
OCc1ccc(-n2cc(-c3n[nH]c4ccccc34)nn2)cc1 [Example 187]	100 to 1000
O=C(NCc1cccc(F)c1)c1ccc(-n2cc(-c3n[nH]c4ccccc34)nn2)cc1 [Example 62, N-(3-fluorobenzyl)-4-[4-(1H-indazol-3-yl)-1H-1,2,3-triazol-1-yl]benzamide]	1000 to 5000
CN(C)C1CCN(C(=O)c2ccc(-n3cc(-c4n[nH]c5ccc(C6=CCCC6)cc45)nn3)cc2)CC1 [Example 172]	100 to 1000
CN1[C@@H]2CCC[C@H]1C[C@H](c1ccc(-n3cc(-c4n[nH]c5cc(F)ccc45)nn3)cc1)C2 [Example 272]	< 100
CS(=O)(=O)N1CCN(C(=O)c2ccc(-n3cc(-c4n[nH]c5ccccc45)nn3)cc2)CC1 [Example 41, 3-[1-(4-{[4-(methylsulfonyl)piperazin-1-yl]carbonyl}phenyl)-1H-1,2,3-triazol-4-yl]-1H-indazole]	100 to 1000
Cc1ccc2c(-c3cn(-c4ccc(CN5CC6CCC(C5)O6)cc4)nn3)n[nH]c2c1 [Example 293]	100 to 1000
O=C(c1ccc(-n2cc(-c3n[nH]c4ccc(Cn5nc(-c6cccnc6)ccc5=O)cc34)nn2)cc1)N1CCOCC1 [Example 177]	< 100
O=C(c1ccc(-n2cc(-c3n[nH]c4ccc(Cn5nc(-c6ccc(O)c(F)c6)ccc5=O)cc34)nn2)cc1)N1CCOCC1 [Example 190]	< 100
Cc1cc(-c2ccc(-n3cc(-c4n[nH]c5ccccc45)nn3)cc2)ccn1 [Example 260]	100 to 1000
CN(C)C1CCN(C(=O)c2ccc(-n3cc(-c4n[nH]c5ccc(C6=CCCCC6)cc45)nn3)cc2)CC1 [Example 174]	100 to 1000
CN1CCN(C(=O)CCc2ccc(-n3cc(-c4n[nH]c5ccccc45)nn3)cc2)CC1 [Example 24, 3-(1-{4-[3-(4-methylpiperazin-1-yl)-3-oxopropyl]phenyl}-1H-1,2,3-triazol-4-yl)-1H-indazole]	1000 to 5000
Cc1ccc2c(-c3cn(-c4ccc(C5CCNCC5)cc4)nn3)n[nH]c2c1 [Example 265]	< 100
O=C(NCC1CCCO1)c1ccc(-n2cc(-c3n[nH]c4ccccc34)nn2)cc1 (stereo not drawn) [Example 45, 4-[4-(1H-indazol-3-yl)-1H-1,2,3-triazol-1-yl]-N-(tetrahydrofuran-2-ylmethyl)benzamide]	100 to 1000
O=C(c1ccc(-n2cc(-c3n[nH]c4ccccc34)nn2)cc1)N1CCN2CCCC2C1 (stereo not drawn) [Example 166]	100 to 1000
CN1[C@@H]2CCC[C@H]1C[C@H](c1ccc(-n3cc(-c4n[nH]c5ccccc45)nn3)cc1)C2 [Example 273]	< 100
Fc1ccc2c(-c3cn(-c4ccc(C5CCNCC5)cc4)nn3)n[nH]c2c1 [Example 266]	< 100

SMILES	IC50 [nM]
CN1CCC(NC(=O)c2ccc3[nH]nc(-c4cn(-c5ccc(CN6CCOCC6)cc5)nn4)c3c2)CC1 [Example 143, N-(1-methylpiperidin-4-yl)-3-{1-[4-(morpholin-4-ylmethyl)phenyl]-1H-1,2,3-triazol-4-yl}-1H-indazole-5-carboxamide]	100 to 1000
OC(CN1[C@@H]2CC[C@H]1C[C@@H](c1ccc(-n3cc(-c4n[nH]c5ccccc45)nn3)cc1)C2)C(F)(F)F (stereo partly drawn) [Example 280]	100 to 1000
CCN1CCCC1CNC(=O)c1ccc(-n2cc(-c3n[nH]c4ccccc34)nn2)cc1 (stereo not drawn) [Example 47, N-[(1-ethylpyrrolidin-2-yl)methyl]-4-[4-(1H-indazol-3-yl)-1H-1,2,3-triazol-1-yl]benzamide]	100 to 1000
c1ccc2c(-c3cn(-c4ccc(C5CCCNC5)cc4)nn3)n[nH]c2c1 (stereo not drawn) [Example 252]	< 100
CC1(C)CNCCC1c1ccc(-n2cc(-c3n[nH]c4cc(F)ccc34)nn2)cc1 (stereo not drawn) [Example 275]	< 100
c1ccc2c(-c3cn(-c4ccc(-c5cnn(C6CCNCC6)c5)cc4)nn3)n[nH]c2c1 [Example 294]	100 to 1000
c1ccc2c(-c3cn(-c4ccc([C@@H]5C[C@H]6CC[C@@H](C5)N6C5CCCCC5)cc4)nn3)n[nH]c2c1 (single isomer, unassigned) [Example 151, 3-(1-{4-[(3-exo)-8-cyclohexyl-8-azabicyclo[3.2.1]oct-3-yl]phenyl}-1H-1,2,3-triazol-4-yl)-1H-indazole]	< 100
c1ccc2c(-c3cn(-c4ccc(CC5CCNCC5)cc4)nn3)n[nH]c2c1 [Example 205]	100 to 1000
c1ccc2c(-c3cn(-c4ccc(N5CCNCC5)cc4)nn3)n[nH]c2c1 [Example 246]	100 to 1000
Fc1ccc2c(-c3cn(-c4ccc(CN5CCCCC56COC6)cc4)nn3)n[nH]c2c1 [Example 285]	100 to 1000
O=C(NCc1ccc(-n2cc(-c3n[nH]c4ccccc34)nn2)cc1)C1CCCC1 [Example 13, N-{4-[4-(1H-indazol-3-yl)-1H-1,2,3-triazol-1-yl]benzyl}cyclopentanecarboxamide]	1000 to 5000
CN1C2CCC1CC(n1cc(-n3cc(-c4n[nH]c5ccc(-c6cnn(C)c6)cc45)nn3)cn1)C2 (stereo not drawn) [Example 278]	< 100
CN(CCNC(=O)c1cccc(-n2cc(-c3n[nH]c4ccccc34)nn2)c1)C1CCCCC1 [Example 64, N-{2-[cyclohexyl(methyl)amino]ethyl}-3-[4-(1H-indazol-3-yl)-1H-1,2,3-triazol-1-yl]benzamide]	1000 to 5000
O=C(c1ccc(-n2cc(-c3n[nH]c4ccccc34)nn2)cc1)N(CCO)C1CCCCC1 [Example 107, N-cyclohexyl-N-(2-hydroxyethyl)-4-[4-(1H-indazol-3-yl)-1H-1,2,3-triazol-1-yl]benzamide]	100 to 1000
CN1CCC(c2ccc(-n3cc(-c4n[nH]c5ccccc45)nn3)cc2C(F)(F)F)CC1 [Example 267]	100 to 1000
CN(C)C1CCN(C(=O)c2ccc(-n3cc(-c4n[nH]c5ccc(C(F)(F)F)cc45)nn3)cc2)CC1 [Example 159]	100 to 1000
OC(c1ccc(-n2cc(-c3n[nH]c4ccccc34)nn2)cc1)C(F)(F)F (stereo not drawn) [Example 150, 2,2,2-trifluoro-1-{4-[4-(1H-indazol-3-yl)-1H-1,2,3-triazol-1-yl]phenyl}ethanol]	100 to 1000
